Source: the NIST ThermoML archive (doi:10.1016/j.jct.2005.10.007)

Experiment: mn = molality of the nth substance listed, in mol/kg
Details: 350 kPa, Liquid, Extra sensitive DSC

C[C@H](N)C(=O)O [(S)-2-aminopropanoic acid] + O
apparent molar heat capacity [J/K/mol]
Details	m1 = 0.0152	m1 = 0.0299	m1 = 0.05	m1 = 0.08	m1 = 0.1247	m1 = 0.2493	m1 = 0.5149	m1 = 1.002
278.15 K	107	137	101.3	106	107	113.3	122.6	118.5
283.15 K	119	148	113.2	117.9	118.8	124.8	133.2	128.7
288.15 K	131	156	123.3	127.8	128.9	134.4	142	137.2
293.15 K	143	163	131.5	136	137.4	142.4	149.5	144.3
298.15 K	152	170	138.2	142.8	144.2	149.1	155.6	150.2
303.15 K	158	174	143.9	148.7	150.3	154.9	160.8	155.5
308.15 K	163	178	148.9	153.7	155.4	159.8	165.3	159.8
313.15 K	169	182	153.6	158	159.9	164.1	169.3	163.8
318.15 K	172	185	157.3	161.6	163.9	167.7	172.6	167.1
323.15 K	175	188	160.9	164.9	167.3	170.9	175.5	170
328.15 K	178	190	163.7	167.7	170.3	173.6	178	172.5
333.15 K	181	192	166.4	170.2	173	176.1	180.3	174.8
338.15 K	184	194	168.8	172.4	175.4	178.3	182.3	176.9
343.15 K	187	196	170.7	174.2	177.3	180.1	183.9	178.6
348.15 K	188	197	172.4	175.9	178.9	181.7	185.3	180.1
353.15 K	190	198	174	177.4	180.5	183.1	186.6	181.4
358.15 K	191	199	175.2	178.5	181.6	184.3	187.6	182.5
363.15 K	192	199	176.1	179.4	182.5	185.1	188.4	183.5
368.15 K	192	200	176.6	180.1	183.3	185.8	189	184.2
373.15 K	192	200	177.1	180.5	183.7	186.2	189.4	184.8
378.15 K	192	200	177.2	180.6	183.8	186.4	189.5	185.1
383.15 K	192	200	177.1	180.7	183.9	186.4	189.6	185.4
388.15 K	192	199	176.8	180.3	183.6	186.2	189.4	185.5
393.15 K	190	200	176.6	179.8	183.1	185.8	189.2	185.5
